The results in this text go back to ChEMBL document CHEMBL3297650, “Discovery of novel oxindole derivatives as potent α-glucosidase inhibitors” (Bioorg Med Chem, 2014).

A short description of this assay: Inhibition of yeast alpha-glucosidase (unknown origin) using para-nitrophenyl glucopyranoside as substrate preincubated for 10 mins before substrate addition measured after 30 mins by spectrophotometry. More on the design: species or system Saccharomyces cerevisiae.

In general, IC50 refers to the point on the concentration scale where inhibition reaches its midpoint. Read a high IC50 as lower potency. For the molecule `CCOc1ccc(/C=C2/C(=O)Nc3cc(Cl)ccc32)cc1`, half-maximal inhibition (IC50) was put at 99.7 µM.
In the case of `O=C1Nc2cc(Cl)ccc2/C1=C\c1ccco1` it was 173 µM; in that of `O=C1Nc2cc(Cl)ccc2/C1=C\c1ccccc1`, 196 µM.
As for `Cc1ccc(/C=C2/C(=O)Nc3cc(Cl)ccc32)cc1`, the figure is 115 µM; as for `COc1ccc(/C=C2/C(=O)Nc3cc(Cl)ccc32)cc1`, 108 µM.
Take `COc1ccc(/C=C2/C(=O)Nc3cc(Cl)ccc32)cc1OC`: the IC50 came out at 411 µM.
`O=C1Nc2cc(Cl)ccc2/C1=C\c1ccccc1[N+](=O)[O-]` had an IC50 of 11.4 µM.
Molecule `O=C1Nc2cc(Cl)ccc2/C1=C\c1ccc(O)cc1` had an IC50 of 24.7 µM.
For `O=C1Nc2cc(Cl)ccc2/C1=C\c1ccc([N+](=O)[O-])cc1`, half-maximal inhibition (IC50) was put at 84.4 µM.
The molecule `CSc1ccc(/C=C2/C(=O)Nc3cc(Cl)ccc32)cc1` had an IC50 of 51.8 µM.
Consider `O=C1Nc2cc(Cl)ccc2/C1=C\c1c2ccccc2cc2ccccc12`, for which the half-inhibitory concentration (IC50) was determined as 17.3 µM.
The molecule `O=C1Nc2cc(Cl)ccc2/C1=C\c1ccc(Cl)cc1Cl` came in with an IC50 of 55.6 µM.
The molecule `O=C1Nc2cc(Cl)ccc2/C1=C\c1ccccc1Cl` came in with an IC50 of 73.1 µM.
Consider `CCOc1cccc(/C=C2/C(=O)Nc3cc(Cl)ccc32)c1O`, for which the half-maximal inhibitory concentration (IC50) came out at 37.9 µM.
Regarding `COc1ccc(O)c(/C=C2/C(=O)Nc3cc(Cl)ccc32)c1`, 82.2 µM corresponded to half-maximal inhibition (IC50).
On to `CN(C)c1ccc(/C=C2/C(=O)Nc3cc(Cl)ccc32)cc1`, for which the concentration for half-maximal inhibition (IC50) worked out at 91.2 µM.
`O=Cc1ccc(/C=C2/C(=O)Nc3cc(Cl)ccc32)cc1` came in with an IC50 of 110 µM.
With `COc1cccc(/C=C2/C(=O)Nc3cc(Cl)ccc32)c1`, the IC50 turned out to be 139 µM.
As for `O=C1Nc2cc(Cl)ccc2/C1=C\c1cccc(O)c1`, the IC50 stood at 15.2 µM.
As for `COc1ccc(/C=C2/C(=O)Nc3cc(Cl)ccc32)c(OC)c1OC`, the figure is 341 µM.
Take `O=C1Nc2cc(Cl)ccc2/C1=C\c1ccc(O)c(O)c1`: half-maximal inhibition (IC50) required 2.71 µM.
For the molecule `O=C1Nc2cc(Cl)ccc2/C1=C\c1c(Cl)cccc1Cl`, the IC50 is 52.9 µM.
Turning to `COc1cccc(/C=C2/C(=O)Nc3cc(Cl)ccc32)c1O`, 72.2 µM corresponded to half-maximal inhibition (IC50).
`O=C1Nc2cc(Cl)ccc2/C1=C\c1cccc2ccccc12` returned an IC50 of 102 µM.
In the case of `CC(C)c1ccc(/C=C2/C(=O)Nc3cc(Cl)ccc32)cc1` it was 14.3 µM.
